Results as given in the NIST ThermoML archive (doi:10.1016/j.jct.2014.01.028).
± gives the expanded uncertainty stated by the source.

Settings: for electrical conductivity / mass density / viscosity: 101.33 kPa, Liquid; for electrical conductivity: Alternating current cell with electrodes; for mass density: Pycnometric method; for viscosity: Capillary tube (Ostwald / Ubbelohde) method; for Glass transition temperature: DTA

Row | SMILES | electrical conductivity (293.15 K) [S/m] | mass density (293.15 K) [kg/m3] | electrical conductivity (303.15 K) [S/m] | viscosity (303.15 K) [mPa·s] | mass density (303.15 K) [kg/m3] | electrical conductivity (313.15 K) [S/m] | viscosity (313.15 K) [mPa·s] | mass density (313.15 K) [kg/m3] | electrical conductivity (323.15 K) [S/m] | viscosity (323.15 K) [mPa·s] | mass density (323.15 K) [kg/m3] | electrical conductivity (333.15 K) [S/m] | viscosity (333.15 K) [mPa·s] | mass density (333.15 K) [kg/m3] | electrical conductivity (343.15 K) [S/m] | viscosity (343.15 K) [mPa·s] | mass density (343.15 K) [kg/m3] | Glass transition temperature [°C] | viscosity (293.15 K) [mPa·s]
1 | C[n+]1ccn(CCCCn2cc[n+](C)c2)c1.c1c[n-]cn1.c1c[n-]cn1 | 0.0266 ± 0.0008 | 1177.4 ± 3.7 | 0.0686 ± 0.0022 | 3058 ± 220 | 1172.8 ± 3.7 | 0.146 ± 0.0047 | 1003 ± 64 | 1166.9 ± 3.7 | 0.283 ± 0.009 | 427.1 ± 22 | 1158.7 ± 3.7 | 0.498 ± 0.016 | 206.3 ± 9.1 | 1154.3 ± 3.7 | 0.955 ± 0.03 | 111.5 ± 4.6 | 1148.9 ± 3.7 | -54.34 ± 2 | –
2 | C[n+]1ccn(CCn2cc[n+](C)c2)c1.c1c[n-]cn1.c1c[n-]cn1 | 0.0111 ± 0.00035 | 1210.8 ± 3.9 | 0.0309 ± 0.00098 | 6306 ± 530 | 1206 ± 3.9 | 0.0684 ± 0.0022 | 2538 ± 180 | 1200 ± 3.9 | 0.145 ± 0.0046 | 854.7 ± 52 | 1191.5 ± 3.9 | 0.254 ± 0.0081 | 440.2 ± 22 | 1185.7 ± 3.9 | 0.425 ± 0.013 | 145.1 ± 8.2 | 1178.9 ± 3.9 | -56.18 ± 2 | –
3 | C[n+]1ccn(CCCN)c1.c1c[n-]cn1 [1-(3-aminopropyl)-3-methylimidazolium imidazolide] | 0.0842 ± 0.0027 | 1148.4 ± 3.5 | 0.166 ± 0.0053 | 98.4 ± 4 | 1143.1 ± 3.5 | 0.304 ± 0.0097 | 54.5 ± 2 | 1137.5 ± 3.5 | 0.504 ± 0.016 | 32.1 ± 1.2 | 1131.8 ± 3.5 | 0.738 ± 0.024 | 19.9 ± 0.7 | 1126.3 ± 3.5 | 1.09 ± 0.035 | 13.7 ± 0.5 | 1120.8 ± 3.5 | -55.02 ± 2 | 220 ± 9.6
4 | CCn1cc[n+](C)c1.c1c[n-]cn1 [1-ethyl-3-methylimidazolium imidazolide] | 0.27 ± 0.0086 | 1113.5 ± 3.3 | 0.487 ± 0.015 | 87.9 ± 3.5 | 1106.7 ± 3.3 | 0.804 ± 0.026 | 42.4 ± 1.6 | 1100.3 ± 3.3 | 1.24 ± 0.039 | 22.9 ± 0.9 | 1092.5 ± 3.3 | 1.69 ± 0.054 | 14.8 ± 0.5 | 1086.3 ± 3.3 | 2.11 ± 0.067 | 8.6 ± 0.3 | 1079.7 ± 3.3 | -60.01 ± 2 | 191.8 ± 8.1

Further lines, results first:

Row | electrical conductivity (293.15 K) [S/m] | mass density (293.15 K) [kg/m3] | electrical conductivity (303.15 K) [S/m] | viscosity (303.15 K) [mPa·s] | mass density (303.15 K) [kg/m3] | electrical conductivity (313.15 K) [S/m] | viscosity (313.15 K) [mPa·s] | mass density (313.15 K) [kg/m3] | electrical conductivity (323.15 K) [S/m] | viscosity (323.15 K) [mPa·s] | mass density (323.15 K) [kg/m3] | electrical conductivity (333.15 K) [S/m] | viscosity (333.15 K) [mPa·s] | mass density (333.15 K) [kg/m3] | electrical conductivity (343.15 K) [S/m] | viscosity (343.15 K) [mPa·s] | mass density (343.15 K) [kg/m3] | Glass transition temperature [°C] | viscosity (293.15 K) [mPa·s] | SMILES
5 | 0.000168 ± 5e-06 | 1301 ± 4.5 | 0.000636 ± 2e-05 | 8896 ± 790 | 1295.7 ± 4.5 | 0.00229 ± 7e-05 | 3632 ± 280 | 1289.8 ± 4.5 | 0.00646 ± 0.00021 | 1255 ± 82 | 1283.7 ± 4.5 | 0.0174 ± 0.00055 | 615.2 ± 34 | 1278.1 ± 4.5 | 0.0391 ± 0.0013 | 290.4 ± 14 | 1272.3 ± 4.4 | -54.01 ± 2 | – | C[n+]1ccn(CCO)c1.c1c[n-]cn1 [1-(2-hydroxyethyl)-3-methylimidazolium imidazolide]
6 | 0.0737 ± 0.0023 | 1085.3 ± 3.2 | 0.15 ± 0.0048 | 272.6 ± 13 | 1079.9 ± 3.2 | 0.284 ± 0.009 | 140 ± 6 | 1073.2 ± 3.2 | 0.481 ± 0.015 | 76.8 ± 2.9 | 1066.5 ± 3.2 | 0.713 ± 0.023 | 47.5 ± 1.7 | 1060.4 ± 3.2 | 1.01 ± 0.032 | 34 ± 1.2 | 1054.1 ± 3.2 | -56.01 ± 2 | 533.3 ± 28 | CCCCn1cc[n+](C)c1.c1c[n-]cn1 [1-butyl-3-methylimidazolium imidazolide]
